Source: patent US20230390323A1, “SPRAYABLE ANTIVIRAL FORMULATION” (priority 2020, published 2023)

Test system: cells
Test: Cell compliance with the spray formulations
Format: cell-based
Method: A study was undertaken to determine cell compliance with the spray formulations over a 48 hour testing period. […] Dose-response was linear (R^2=0.96 and 0.97 for gellan and lambda-carrageenan, respectively), with reduced cell death as the systems became increasing more dilute.

Substance: gellan
- Reduction in the number of living cells: 2 fold
